{"source": "patent US9857359B2", "about": "“Methods for determining drug efficacy using cereblon-associated proteins” (CELGENE CORPORATION, priority 2012, dated 2018)", "assay_type_in_all_cases": "cell-based", "key": {"Ikaros [1]": {"biological_target": "T1, Ikaros (Homo sapiens, UniProt Q13422)", "T1 sequence (Q13422 whole entry)": "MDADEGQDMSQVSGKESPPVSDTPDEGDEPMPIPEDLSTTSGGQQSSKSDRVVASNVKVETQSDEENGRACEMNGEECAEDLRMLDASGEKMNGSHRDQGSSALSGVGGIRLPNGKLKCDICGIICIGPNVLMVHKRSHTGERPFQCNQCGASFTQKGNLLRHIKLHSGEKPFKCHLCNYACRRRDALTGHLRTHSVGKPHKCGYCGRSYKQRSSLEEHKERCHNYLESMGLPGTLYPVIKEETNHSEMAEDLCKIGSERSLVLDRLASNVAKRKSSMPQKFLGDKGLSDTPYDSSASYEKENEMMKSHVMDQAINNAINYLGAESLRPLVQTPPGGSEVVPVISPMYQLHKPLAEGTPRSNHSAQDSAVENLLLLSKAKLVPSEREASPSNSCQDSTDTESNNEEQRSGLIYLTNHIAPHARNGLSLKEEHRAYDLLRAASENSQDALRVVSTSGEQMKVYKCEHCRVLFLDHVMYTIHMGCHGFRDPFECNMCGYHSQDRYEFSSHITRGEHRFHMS", "test": "Ikaros western blots in MM cells, T cells and B cells", "design": "endogenous in cells; host or cells: U266, DF15 (and other MM lines), primary CD3+ T cells, primary CD19+ B cells", "details": "for Reduction of Ikaros levels compared with other treatment compounds for MM: MM cells", "protocol": "U266 cells were obtained from ATCC (American Type Culture Collection, Manassas, Va., USA). DF15 cells were obtained from John Shaughnessy (University of Arkansas, Little Rock, Ark., USA). CD19+ B cells were purchased from HemaCare BioResearch Products (Van Nuys, Calif.). Cells were grown in RPMI-1640 medium (Cellgro, Manassas, Va.) containing 10% (V/V) heat-inactivated fetal bovine serum (Gibco, Grand Island, N.Y., USA) supplemented with 2 mM glutamine. […] Primary T cells were isolated from human leukocytes (Blood Center of New Jersey, East Orange, N.J.) by centrifugation through FICOLL® centrifugation medium following the ROSETETTESEP™ protocol (Stem Cell Technologies, Vancouver, Canada). […] Dexamethasone (Sigma, St. Louis, Mo.), melphalan (Sigma, St. Louis, Mo.) and bortezomib (Selleck Chemicals, Houston, Tex.) treated was for 6 hours. The final DMSO concentration is 0.1%. Cells were pre-treated with 10 μM MG-132 (Calbiochem Biochemicals, Billerica, Mass.) for 30 minutes prior to drug addition. Cells were harvested, washed in PBS and cell lysates separated on SDS-PAGE gels (Bio-Rad, Hercules, Calif.). Membranes were immunoblotted with anti-Aiolos (Santa Cruz Biotechnology, Dallas, Tex.), anti-Ikaros (Millipore, Billerica, Mass.) and anti-Actin (Sigma, St. Louis, Mo.; or LI-COR Biosciences, Lincoln, Nebr.) and secondary antibodies (LI-COR Biosciences, Lincoln, Nebr.). The blots were analyzed on ODESSEY® imager (LI-COR Biosciences, Lincoln, Nebr.).\nCell lysates were separated on a 10% TGX SDS-PAGE gel (Bio-Rad) and blotted for Aiolos (Santa Cruz, sc-10198), Ikaros (Millipore, ABD16) and Actin (Sigma, AC15)."}, "[2]": {"system": "Aiolos peptide containing lysine 203", "test": "UbiScan mass spectrometry of ubiquitylated proteins in multiple myeloma cells", "from_the_text": "Mass spectrometry of ubiquitylated proteins (Ubiscan™): Cell Signaling Technology's UbiScan™ proteomics platform was used to identify and quantify differences in ubiquitination in primary human T cells untreated (Treatment 1) or treated with Treatment 2 or Treatment 3, and in MM cell lines treated with immunomodulatory compounds in the presence or absence of the proteasome inhibitor MG132. The UbiScan™ method combines the isolation of ubiquitinated peptides from protease digested protein extracts using CST's proprietary immunoaffinity purification method with the identification and quantitation of peptides by liquid chromatography, tandem mass spectrometry (LC-MS/MS). The quantification of ubiquitination is based on the abundance of the ubiquitinated peptides recovered by antibody immunoprecipitation. The abundance or intensity information for each ubiquitinated peptide is based on the peak height of that peptide measured in the MS1 channel. The confidence in the calculated fold change is dependent on a number of factors, an important one being the intensity or peak height of the ubiquitinated peptide. Samples were analyzed by LC-MS/MS on an ORBITRAP VELOS™ mass spectrometer. […] Label-free quantitation was performed by comparing peak intensities of the same peptide ion in each sample to generate their corresponding fold-changes. […]"}, "Ikaros [3]": {"biological_target": "T1, Ikaros", "test": "Ikaros in siCRBN transfected primary CD3+ T cells", "design": "endogenous in cells; host or cells: U266, DF15 (and other MM lines), primary CD3+ T cells, primary CD19+ B cells", "details": "siCRBN vs siControl, 6/24 hours", "protocol": "Primary T cells were isolated from human leukocytes (Blood Center of New Jersey, East Orange, N.J.) by centrifugation through FICOLL® centrifugation medium following the ROSETETTESEP™ protocol (Stem Cell Technologies, Vancouver, Canada). Purified T cells were treated with 1 μg/mL PHA-L (Sigma, St. Louis, Mo.) at 37° C. for 24 hours then transfected with either siCRBN or siAiolos (Invitrogen) (200 nM siRNA/100 μL T buffer/8×10^6 cells/shot×5 shots) using NEON® Transfection System (Invitrogen, Grand Island, N.Y.) with program 2100 voltage+15 width+2 pulse. Low GC content siRNA (Invitrogen, Grand Island, N.Y.) was transfected as negative control. Transfected cells were pooled and cultured in OKT3 (3 μg/mL, eBioscience, San Diego, Calif.) coated 10 cm dish with 20 ml RPMI containing 10% FBS at 37° C. for 24 hours. Cells were collected for measuring CRBN or Aiolos knockdown efficiency by western blot (anti-Aiolos: Santa Cruz, sc-10198, lot.C-0212) and qRT-PCR (Applied Biosystem, gene expression CRBN Hs00372271_ml; IKZF3 ID#:Hs00232635_ml). […] Aiolos and Ikaros protein expression was determined by immunoblot analysis using antibodies against Aiolos (Santa Cruz, Dallas, Tex.) and Ikaros (Millipore, Billerica, Mass.). […] Supernatants were harvested and IL-2 protein detected by ELISA (Thermo Scientific, Lafayette, Colo.). […]"}, "[4]": {"details": "10 μM lenalidomide, 1 μM pomalidomide, U266, DF15 MM cells, primary CD3+ T cells, primary CD19+ B cells, cycloheximide treated U266"}, "[5]": {"details": "six MM cell lines (OPM-2, RPMI-8226, LP-1, U266, H929 and JJN3), various concentrations"}}, "data": [{"smiles": "Nc1cccc2c1CN(C1CCC(=O)NC1=O)C2=O", "note": "(stereo not shown) [lenalidomide]", "values": [{"measurement": "Ikaros expression", "setting": "Ikaros [1]; [4]", "result": "reduced the expression of Aiolos and Ikaros"}, {"measurement": "Reduction of Ikaros levels compared with other treatment compounds for MM", "setting": "Ikaros [1]", "result": "unique to immunomodulatory compounds provided herein"}, {"measurement": "Ikaros expression", "setting": "Ikaros [1]; [5]", "result": "significantly inhibited Aiolos and Ikaros expression"}, {"measurement": "Ubiquitination of Aiolos peptide containing lysine 203", "setting": "[2]", "result": "enhance the ubiquitination of Aiolos peptide containing lysine 203"}, {"measurement": "Effect in reducing or inhibiting the expression of Ikaros where CRBN is knocked-down", "setting": "Ikaros [3]", "result": "significantly reduced as compared to the control cells with no CRBN knock-down"}]}, {"smiles": "Nc1cccc2c1C(=O)N(C1CCC(=O)NC1=O)C2=O", "note": "(stereo not shown) [pomalidomide, reference compound]", "values": [{"measurement": "Ikaros expression", "setting": "Ikaros [1]; [4]", "result": "reduced the expression of Aiolos and Ikaros"}, {"measurement": "Reduction of Ikaros levels compared with other treatment compounds for MM", "setting": "Ikaros [1]", "result": "unique to immunomodulatory compounds provided herein"}, {"measurement": "Ikaros expression", "setting": "Ikaros [1]; [5]", "result": "significantly inhibited Aiolos and Ikaros expression"}, {"measurement": "Ubiquitination of Aiolos peptide containing lysine 203", "setting": "[2]", "result": "enhance the ubiquitination of Aiolos peptide containing lysine 203"}, {"measurement": "Effect in reducing or inhibiting the expression of Ikaros where CRBN is knocked-down", "setting": "Ikaros [3]", "result": "significantly reduced as compared to the control cells with no CRBN knock-down"}]}]}
